Values quoted from earlier work, collected in PMC11938273 (Journal of Chemical Information and Modeling, 2025).

Details: in vivo; cited from earlier work

Structure (SMILES) | CNS status
CC[C@H]1OC(=O)[C@H](C)[C@@H](O[C@H]2C[C@@](C)(OC)[C@@H](O)[C@H](C)O2)[C@H](C)[C@@H](O[C@@H]2O[C@H](C)C[C@H](N(C)C)[C@H]2O)[C@](C)(OC)C[C@@H](C)C(=O)[C@H](C)[C@@H](O)[C@]1(C)O (mixture of isomers) [Clarithromycin, rac-(3R,4S,5S,6R,7R,9R,11R,12R,13S,14R)-6-(((2S,3R,4S,6R)-4-(dimethylamino)-3-hydroxy-6-methyltetrahydro-2H-pyran-2-yl)oxy)-14-ethyl-12,13-dihydroxy-4-(((2R,4R,5S,6S)-5-hydroxy-4-methoxy-4,6-dimethyltetrahydro-2H-pyran-2-yl)oxy)-7-methoxy-3,5,7,9,11,13-hexamethyloxacyclotetradecane-2,10-dione] | Negative
CCC(C)CCCC(=O)N[C@H](CCN)C(=O)N[C@@H](C(=O)N[C@H](CCN)C(=O)N[C@@H]1CCNC(=O)[C@H]([C@H](C)O)NC(=O)[C@@H](CCN)NC(=O)[C@@H](CCN)NC(=O)[C@@H](CC(C)C)NC(=O)[C@H](CC(C)C)NC(=O)[C@@H](CCN)NC1=O)[C@H](C)O (mixture of isomers) [Colistin, rac-N-((R)-4-amino-1-(((2R,3S)-1-(((R)-4-amino-1-oxo-1-(((3S,6R,9R,12R,15S,18R,21R)-6,9,18-tris(2-aminoethyl)-3-((S)-1-hydroxyethyl)-12,15-diisobutyl-2,5,8,11,14,17,20-heptaoxo-1,4,7,10,13,16,19-heptaazacyclotricosan-21-yl)amino)butan-2-yl)amino)-3-hydroxy-1-oxobutan-2-yl)amino)-1-oxobutan-2-yl)-5-methylheptanamide] | Negative
C[C@@H](CN1CC(=O)NC(=O)C1)N1CC(=O)NC(=O)C1 (racemic) [Dexrazoxane, rac-(R)-4,4'-(propane-1,2-diyl)bis(piperazine-2,6-dione)] | Negative
C[C@H](N)[C@H](O)c1cccc(O)c1 (racemic) [Metaraminol, rac-3-((1R,2S)-2-amino-1-hydroxypropyl)phenol] | Negative
CC(C)CCCCC(=O)N[C@@H](CCN)C(=O)N[C@H](C(=O)N[C@@H](CCN)C(=O)N[C@H]1CCNC(=O)[C@H]([C@@H](C)O)NC(=O)[C@H](CCN)NC(=O)[C@H](CCN)NC(=O)[C@H](CC(C)C)NC(=O)[C@@H](Cc2ccccc2)NC(=O)[C@H](CCN)NC1=O)[C@@H](C)O (racemic) [Polymyxin B2, rac-N-((R)-4-amino-1-(((2R,3S)-1-(((R)-4-amino-1-oxo-1-(((3R,6R,9R,12R,15S,18R,21R)-6,9,18-tris(2-aminoethyl)-15-benzyl-3-((S)-1-hydroxyethyl)-12-isobutyl-2,5,8,11,14,17,20-heptaoxo-1,4,7,10,13,16,19-heptaazacyclotricosan-21-yl)amino)butan-2-yl)amino)-3-hydroxy-1-oxobutan-2-yl)amino)-1-oxobutan-2-yl)-6-methylheptanamide] | Negative
COC(=O)[C@H](c1ccccc1)[C@H]1CCCCN1 (racemic) [Ritalin, rac-methyl (R)-2-phenyl-2-((R)-piperidin-2-yl)acetate] | Positive
COC(=O)[C@H]1[C@@H](c2ccc(I)cc2)C[C@@H]2CC[C@H]1N2CCCF (racemic) [beta-CIT-FP, rac-methyl(1R,2S,3S,5S)-8-(3-fluoropropyl)-3-(4-iodophenyl)-8-azabicyclo[3.2.1]octane-2-carboxylate] | Positive
C[N+]1(CC2CC2)CC[C@]23c4c5ccc(O)c4O[C@H]2C(=O)CC[C@@]3(O)C1C5 (stereo in doubt) [Methylnaltrexone bromide, (3S,4S,4aS,7aR,12bS)-3-(cyclopropylmethyl)-4a,9-dihydroxy-3-methyl-7-oxo-2,3,4,4a,5,6,7,7a-octahydro-1H-4,12-methanobenzofuro[3,2-e]isoquinolin-3-ium] | Negative
CN1[C@H]2CC[C@@H]1[C@@H](C(=O)OCCF)[C@@H](c1ccc(I)cc1)C2 [2-FE-beta-CIT, (1R,2S,3S,5S)-2-fluoroethyl-3-(4-iodophenyl)-8-methyl-8-azabicyclo[3.2.1]octane-2-carboxylate] | Positive
